From article PMC12802961 (Journal of Antimicrobial Chemotherapy, 2025)

Assays:
[1] = Protein binding, equilibrium dialysis chamber, LC-MS/MS; assay type: in vitro ADME
Text: […]. […] […].
(§1) . […] Free drug concentrations were used in all calculations. […]

[2] = system: β-lactamase–producing Enterobacterales and Pseudomonas aeruginosa; assay: Neutropenic murine thigh infection model, all isolates together; assay type: in vivo; conditions: against Enterobacterales and AmpC-producing P. aeruginosa
Experimental: […]. […] […]. All dosing regimens were performed in at least two animals per dosing regimen.
At t = 0 h, 2 h after infection, two mice were humanely euthanized to determine the initial number of cfu/thigh just before treatment. All other animals were euthanized at t = 24 h unless the welfare of the animals indicated earlier termination, following animal welfare regulations. Thighs were taken and moved to a pre-cooled 10 mL plastic tube (Transport Tube, Omnilabo, NL) containing 2 mL PBS (NaCl 8.00 g/L, Na2HPO4 * 2H2O 1.44 g/L, KH2PO4 0.26 g/L, pH 7.2–7.4). Subsequently, thighs were homogenized using the Ultra-Turrax homogenizer (IKA Labortechnik, Germany). For each thigh 10-fold dilution series were prepared and 3 × 10 µL per dilution were plated (Chromagar, bioMérieux, NL). The following day, colonies were counted and the number of cfu/thigh was calculated. The drug effect was then determined as the difference between the log10cfu/thigh values at t = 24 h and t = 0 h (mean value of two mice) expressed as Δlog10cfu, i.e. positive result for growth, zero for static effect and negative for reduction of inoculum (killing).
as §1

[3] = system: P. aeruginosa 106; assay: Neutropenic murine thigh infection model; assay type: in vivo, Pseudomonas aeruginosa
Experimental: (§2) All dosing regimens were performed in at least two animals per dosing regimen.
(§3) At t = 0 h, 2 h after infection, two mice were humanely euthanized to determine the initial number of cfu/thigh just before treatment. […] Subsequently, thighs were homogenized using the Ultra-Turrax homogenizer (IKA Labortechnik, Germany). For each thigh 10-fold dilution series were prepared and 3 × 10 µL per dilution were plated (Chromagar, bioMérieux, NL). The following day, colonies were counted and the number of cfu/thigh was calculated.
(§4) Free drug concentrations were used in all calculations.

[4] = system: P. aeruginosa 132; assay: Neutropenic murine thigh infection model; assay type: in vivo, Pseudomonas aeruginosa
Experimental: as §2, §3, §4

[5] = system: P. aeruginosa 106; assay: Checkerboard broth microdilution MIC of cefepime alone and with taniborbactam; assay type: cell-based, Pseudomonas aeruginosa
Text: (§5) Four previously well-characterized cefepime-resistant isolates, namely one ESBL-producing E. coli, one ESBL-producing K. pneumoniae and two P. aeruginosa (one VIM- and one AmpC constitutively -producing), were used.

[6] = system: P. aeruginosa 132; assay: as above; assay type: cell-based, Pseudomonas aeruginosa
Text: as §5

[7] = system: K. pneumoniae 59; assay: Neutropenic murine thigh infection model; assay type: in vivo, Klebsiella pneumoniae
Experimental: as §2, §3, §4

[8] = system: K. pneumoniae 59; assay: Checkerboard broth microdilution MIC of cefepime alone and with taniborbactam; assay type: cell-based, Klebsiella pneumoniae
Text: as §5

[9] = cefepime monotherapy q2h, extrapolated
[10] = cefepime monotherapy, extrapolated
[11] = cefepime monotherapy q2h s.c. 24 h

## CO/N=C(\C(=O)N[C@@H]1C(=O)N2C(C(=O)[O-])=C(C[N+]3(C)CCCC3)CS[C@H]12)c1csc(N)n1 [cefepime, Cefepime]
[1]
  fraction unbound: 0.8
[2]
  Effect of cefepime alone: marginally reached stasis
[3]; [9]
  1 log10 kill: %ƒT > MIC: (47.4) %
  1 log10 kill: Total daily dose, mg/kg: (3484.4) mg/kg
  Stasis: %ƒT > MIC: (36.9) %
[3]; cefepime monotherapy q2h s.c. 24 h, extrapolated
  Stasis: Total daily dose, mg/kg: (1901.6) mg/kg
[3]; [10]
  1 log10 kill: q2h dose, mg/kg: (290.4) mg/kg
  Stasis: q2h dose, mg/kg: (158.5) mg/kg
[3]; cefepime q2h 64 mg/kg, MIC 32 mg/L
  Cefepime %fT > MIC: 22.10%
[4]; cefepime monotherapy
  1 log10 kill: q2h dose, mg/kg: 59.9 mg/kg
[4]; cefepime monotherapy q2h
  1 log10 kill: %ƒT > MIC: 32.4%
  1 log10 kill: Total daily dose, mg/kg: 718.3 mg/kg
  Stasis: %ƒT > MIC: 8.9%
[4]; [11]
  Stasis: Total daily dose: 180.8 mg/kg
[4]; cefepime q2h 8 mg/kg, potMIC 1 mg/L (with 4 mg/L taniborbactam)
  Cefepime %fT > potMIC: 46.10%
[5]; P. aeruginosa 106, +taniborbactam 0.03 mg/L
  Cefepime MIC at taniborbactam 0.03 mg/L: 32 µg/mL
[5]; P. aeruginosa 106, +taniborbactam 0.06 mg/L
  Cefepime MIC at taniborbactam 0.06 mg/L: 32 µg/mL
[5]; P. aeruginosa 106, +taniborbactam 0.125 mg/L
  Cefepime MIC at taniborbactam 0.125 mg/L: 32 µg/mL
[5]; P. aeruginosa 106, +taniborbactam 0.25 mg/L
  Cefepime MIC at taniborbactam 0.25 mg/L: 16 µg/mL
[5]; P. aeruginosa 106, +taniborbactam 0.5 mg/L
  Cefepime MIC at taniborbactam 0.5 mg/L: 16 µg/mL
[5]; P. aeruginosa 106, +taniborbactam 1 mg/L
  Cefepime MIC at taniborbactam 1 mg/L: 16 µg/mL
[5]; P. aeruginosa 106, +taniborbactam 2 mg/L
  Cefepime MIC at taniborbactam 2 mg/L: 8 µg/mL
[5]; P. aeruginosa 106, +taniborbactam 4 mg/L
  Cefepime MIC at taniborbactam 4 mg/L (potMIC): 4 µg/mL
[5]; Pseudomonas aeruginosa, 106, read-out: Cefepime MIC (mg/L) alone
  MIC: 32 mg/L
[6]; P. aeruginosa 132, +taniborbactam 0.03 mg/L
  Cefepime MIC at taniborbactam 0.03 mg/L: 16 µg/mL
[6]; P. aeruginosa 132, +taniborbactam 0.06 mg/L
  Cefepime MIC at taniborbactam 0.06 mg/L: 16 µg/mL
[6]; P. aeruginosa 132, +taniborbactam 0.125 mg/L
  Cefepime MIC at taniborbactam 0.125 mg/L: 8 µg/mL
[6]; P. aeruginosa 132, +taniborbactam 0.25 mg/L
  Cefepime MIC at taniborbactam 0.25 mg/L: 4 µg/mL
[6]; P. aeruginosa 132, +taniborbactam 0.5 mg/L
  Cefepime MIC at taniborbactam 0.5 mg/L: 2 µg/mL
[6]; P. aeruginosa 132, +taniborbactam 1 mg/L
  Cefepime MIC at taniborbactam 1 mg/L: 1 µg/mL
[6]; P. aeruginosa 132, +taniborbactam 2 mg/L
  Cefepime MIC at taniborbactam 2 mg/L: 1 µg/mL
[6]; P. aeruginosa 132, +taniborbactam 4 mg/L
  Cefepime MIC at taniborbactam 4 mg/L (potMIC): 1 µg/mL
[6]; Pseudomonas aeruginosa, 132, read-out: Cefepime MIC (mg/L) alone
  MIC: 16 mg/L
[7]; cefepime monotherapy
  Stasis: q2h dose: 117.8 mg/kg
[7]; cefepime monotherapy q2h
  Stasis: %ƒT > MIC: 0.0%
[7]; cefepime monotherapy q2h, belongs to extrapolated dose
  1 log10 kill: %ƒT > MIC: 15.9%
[7]; [9]
  1 log10 kill: Total daily dose, mg/kg: (4371.3) mg/kg
[7]; [11]
  Stasis: Total daily dose: 1413.4 mg/kg
[7]; [10]
  1 log10 kill: q2h dose, mg/kg: (364.0) mg/kg
[7]; cefepime q2h 4 mg/kg, potMIC 0.5 mg/L (with 4 mg/L taniborbactam)
  Cefepime %fT > potMIC: 69.30%
[8]; K. pneumoniae 59, +taniborbactam 0.03 mg/L
  Cefepime MIC at taniborbactam 0.03 mg/L: 64 µg/mL
[8]; K. pneumoniae 59, +taniborbactam 0.06 mg/L
  Cefepime MIC at taniborbactam 0.06 mg/L: 32 µg/mL
[8]; K. pneumoniae 59, +taniborbactam 0.125 mg/L
  Cefepime MIC at taniborbactam 0.125 mg/L: 8 µg/mL
[8]; K. pneumoniae 59, +taniborbactam 0.25 mg/L
  Cefepime MIC at taniborbactam 0.25 mg/L: 2 µg/mL
[8]; K. pneumoniae 59, +taniborbactam 0.5 mg/L
  Cefepime MIC at taniborbactam 0.5 mg/L: 1 µg/mL
[8]; K. pneumoniae 59, +taniborbactam 1 mg/L
  Cefepime MIC at taniborbactam 1 mg/L: 1 µg/mL
[8]; K. pneumoniae 59, +taniborbactam 2 mg/L
  Cefepime MIC at taniborbactam 2 mg/L: 1 µg/mL
[8]; K. pneumoniae 59, +taniborbactam 4 mg/L
  Cefepime MIC at taniborbactam 4 mg/L (potMIC): 0.5 µg/mL
[8]; Klebsiella pneumoniae, 59, read-out: Cefepime MIC (mg/L) alone
  MIC: 256 mg/L
